The target in data set [1] is 5-hydroxytryptamine receptor 7 (Homo sapiens, UniProt P34969). The data set is described as follows: biochemical. The format is cell-based, CHO-K1.
Data set [2] has as its target 5-hydroxytryptamine receptor 2A (Homo sapiens, UniProt P28223). The experiment in a line: biochemical. The data set is classed as cell-based, CHO-K1.
The target of data set [3] is T1, Muscarinic acetylcholine receptor M1 (Homo sapiens) (UniProt P11229).
T1 sequence (whole entry): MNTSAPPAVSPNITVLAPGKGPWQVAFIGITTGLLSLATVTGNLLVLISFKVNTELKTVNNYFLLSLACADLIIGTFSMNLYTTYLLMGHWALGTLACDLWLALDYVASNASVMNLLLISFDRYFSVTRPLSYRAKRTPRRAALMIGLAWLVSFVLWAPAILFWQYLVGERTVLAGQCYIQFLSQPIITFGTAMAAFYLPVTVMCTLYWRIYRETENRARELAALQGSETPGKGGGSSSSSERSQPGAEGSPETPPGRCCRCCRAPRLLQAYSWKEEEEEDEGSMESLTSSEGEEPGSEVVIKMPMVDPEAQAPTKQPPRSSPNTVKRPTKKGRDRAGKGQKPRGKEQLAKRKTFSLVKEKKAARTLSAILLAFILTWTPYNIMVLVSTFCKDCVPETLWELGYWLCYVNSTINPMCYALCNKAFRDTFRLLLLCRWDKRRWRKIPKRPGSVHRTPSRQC
The data set is described as follows: Displacement of [3H]pirenzepine from human recombinant M1 receptor expressed in CHO cells at 1 uM. The format is cell-based. In general terms: In a radioligand displacement assay an active substance lowers the binding of a labelled ligand.

The target of data set [4] is hERG (KCNH2) potassium channel (Homo sapiens, UniProt Q12809). The data set is described as follows: in vitro. The note with it: CHO cells expressing human cloned ERG.
The target in data set [5] is 5-hydroxytryptamine receptor 6 (Homo sapiens, UniProt P50406). The data set is described as follows: biochemical.
For a further data set, the target named is D(2) dopamine receptor (Homo sapiens, UniProt P14416). The experiment in a line: biochemical.

Where only a bound is given, the exact number is not on record here.

Sequence of 5-hydroxytryptamine receptor 2A (P28223 whole entry): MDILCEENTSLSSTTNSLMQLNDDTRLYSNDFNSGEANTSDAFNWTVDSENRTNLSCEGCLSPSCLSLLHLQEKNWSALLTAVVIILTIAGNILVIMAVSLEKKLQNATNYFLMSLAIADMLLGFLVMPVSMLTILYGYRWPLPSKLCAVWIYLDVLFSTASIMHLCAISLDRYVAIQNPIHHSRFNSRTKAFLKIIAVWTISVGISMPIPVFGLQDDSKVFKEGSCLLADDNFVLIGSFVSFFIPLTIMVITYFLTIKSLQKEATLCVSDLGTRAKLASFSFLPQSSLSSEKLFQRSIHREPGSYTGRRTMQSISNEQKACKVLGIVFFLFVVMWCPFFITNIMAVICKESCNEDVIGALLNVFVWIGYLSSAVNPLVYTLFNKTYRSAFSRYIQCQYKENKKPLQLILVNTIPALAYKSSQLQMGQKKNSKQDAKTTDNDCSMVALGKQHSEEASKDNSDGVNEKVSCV
Sequence of D(2) dopamine receptor (P14416 whole entry): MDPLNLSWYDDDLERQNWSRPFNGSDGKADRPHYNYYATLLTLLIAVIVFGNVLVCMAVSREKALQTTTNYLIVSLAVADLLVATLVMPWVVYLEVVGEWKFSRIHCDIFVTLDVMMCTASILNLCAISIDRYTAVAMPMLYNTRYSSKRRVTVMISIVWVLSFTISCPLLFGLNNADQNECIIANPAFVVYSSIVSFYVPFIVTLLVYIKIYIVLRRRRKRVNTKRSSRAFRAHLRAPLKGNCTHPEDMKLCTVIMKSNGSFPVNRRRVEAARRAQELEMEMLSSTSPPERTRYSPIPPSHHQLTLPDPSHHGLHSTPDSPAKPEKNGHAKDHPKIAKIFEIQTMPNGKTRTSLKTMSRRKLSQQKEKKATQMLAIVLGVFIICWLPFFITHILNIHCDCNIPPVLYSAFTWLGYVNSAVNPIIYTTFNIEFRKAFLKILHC
Sequence of 5-hydroxytryptamine receptor 6 (P50406 whole entry): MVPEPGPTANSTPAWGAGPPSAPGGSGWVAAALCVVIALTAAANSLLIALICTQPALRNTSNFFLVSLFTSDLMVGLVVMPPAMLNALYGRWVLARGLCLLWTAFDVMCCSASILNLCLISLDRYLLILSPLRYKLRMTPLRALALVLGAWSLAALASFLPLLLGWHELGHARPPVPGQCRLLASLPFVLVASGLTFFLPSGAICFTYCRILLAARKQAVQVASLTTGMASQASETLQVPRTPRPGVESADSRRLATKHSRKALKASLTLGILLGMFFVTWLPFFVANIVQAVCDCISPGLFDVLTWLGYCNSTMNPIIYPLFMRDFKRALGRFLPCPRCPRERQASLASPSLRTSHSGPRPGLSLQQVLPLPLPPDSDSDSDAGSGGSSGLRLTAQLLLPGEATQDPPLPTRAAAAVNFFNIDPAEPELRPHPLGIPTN
Sequence of hERG (KCNH2) potassium channel (Q12809 whole entry): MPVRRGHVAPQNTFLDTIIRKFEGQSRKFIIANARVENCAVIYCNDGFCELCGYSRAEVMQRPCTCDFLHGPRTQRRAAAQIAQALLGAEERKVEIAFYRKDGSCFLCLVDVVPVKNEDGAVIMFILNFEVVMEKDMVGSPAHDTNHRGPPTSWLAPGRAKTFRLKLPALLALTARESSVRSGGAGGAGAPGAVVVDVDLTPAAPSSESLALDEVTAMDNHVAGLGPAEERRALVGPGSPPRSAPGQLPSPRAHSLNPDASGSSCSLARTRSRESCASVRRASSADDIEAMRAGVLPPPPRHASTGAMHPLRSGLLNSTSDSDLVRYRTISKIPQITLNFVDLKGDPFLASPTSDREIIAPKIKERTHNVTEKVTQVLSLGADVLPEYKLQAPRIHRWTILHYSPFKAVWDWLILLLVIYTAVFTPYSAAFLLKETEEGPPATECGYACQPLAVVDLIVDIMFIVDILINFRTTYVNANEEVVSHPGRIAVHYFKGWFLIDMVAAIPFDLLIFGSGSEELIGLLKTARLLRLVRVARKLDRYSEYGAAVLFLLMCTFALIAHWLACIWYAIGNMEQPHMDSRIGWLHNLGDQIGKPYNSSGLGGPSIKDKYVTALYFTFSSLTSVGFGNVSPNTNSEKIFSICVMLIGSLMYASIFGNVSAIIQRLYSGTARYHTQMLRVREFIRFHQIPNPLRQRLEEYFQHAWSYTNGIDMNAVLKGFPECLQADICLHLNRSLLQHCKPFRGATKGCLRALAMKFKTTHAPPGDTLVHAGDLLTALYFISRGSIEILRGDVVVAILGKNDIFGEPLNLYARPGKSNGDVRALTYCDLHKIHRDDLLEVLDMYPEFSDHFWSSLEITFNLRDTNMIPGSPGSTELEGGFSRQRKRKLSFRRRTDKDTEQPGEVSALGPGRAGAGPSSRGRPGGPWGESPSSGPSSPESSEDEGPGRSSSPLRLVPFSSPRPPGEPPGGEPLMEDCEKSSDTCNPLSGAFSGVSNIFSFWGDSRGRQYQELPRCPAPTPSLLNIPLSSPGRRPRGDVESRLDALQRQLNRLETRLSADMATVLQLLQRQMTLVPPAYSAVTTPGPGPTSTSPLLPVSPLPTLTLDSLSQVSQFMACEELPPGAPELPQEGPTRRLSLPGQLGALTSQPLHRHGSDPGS
Sequence of 5-hydroxytryptamine receptor 7 (P34969 whole entry): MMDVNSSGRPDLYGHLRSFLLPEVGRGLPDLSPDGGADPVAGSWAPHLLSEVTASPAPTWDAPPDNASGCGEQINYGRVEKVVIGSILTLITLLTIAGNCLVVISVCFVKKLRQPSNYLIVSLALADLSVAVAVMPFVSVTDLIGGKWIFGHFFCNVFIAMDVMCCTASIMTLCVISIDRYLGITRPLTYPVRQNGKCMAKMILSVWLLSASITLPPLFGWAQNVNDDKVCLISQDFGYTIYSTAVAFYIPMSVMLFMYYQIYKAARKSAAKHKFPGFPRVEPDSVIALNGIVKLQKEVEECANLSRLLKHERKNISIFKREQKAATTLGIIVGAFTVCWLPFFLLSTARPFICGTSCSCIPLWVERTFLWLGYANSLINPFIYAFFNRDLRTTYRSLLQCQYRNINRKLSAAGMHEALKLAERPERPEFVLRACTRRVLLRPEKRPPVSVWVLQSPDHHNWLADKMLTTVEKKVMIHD

A word on the Ki: it is a measure of affinity in units of concentration, obtained from inhibition or displacement. As usually defined, the inhibition is the change of the read-out against control, counted positive when it falls. As for `Cc1c(S(=O)(=O)NCCCCN2CCN(c3noc4ccccc34)CC2)sc2ccc(F)cc12`, the inhibition constant (Ki) in data set [1] came out at 2.6 nM; in data set [2], 7.4 nM; in data set [5], 17 nM; on D(2) dopamine receptor, 46 nM. In addition, the inhibition in data set [3] was -4%. For the same compound, the inhibition at 1 µM in data set [4] was determined as 29%.

Turning to `O=S(=O)(NCCCCN1CCN(c2noc3ccccc23)CC1)c1cc2ccc(Cl)cc2s1`, the Ki in data set [1] came out at 5.1 nM; in data set [2], 11 nM; in data set [5] it was 46 nM; on D(2) dopamine receptor, 54 nM. In addition, the inhibition in data set [3] was -1%. Further, the inhibition at 1 µM in data set [4] amounted to 15%.

Turning to `O=S(=O)(NCCCCN1CCN(c2noc3ccccc23)CC1)c1cc2ccccc2s1`, the Ki in data set [1] is 180 nM; in data set [2], 190 nM; in data set [5], 1100 nM; at D(2) dopamine receptor, 1300 nM. Moreover, the inhibition in data set [3] came out at 2%. Further, the inhibition at 1 µM in data set [4] turned out to be 14%.

For the compound `O=S(=O)(NCCCCN1CCN(c2nsc3ccccc23)CC1)c1cccs1`, the inhibition constant Ki in data set [1] came to 3.2 nM; in data set [2], 5.5 nM; in data set [5] it was 42 nM; on D(2) dopamine receptor it was 3.2 nM. Also, the inhibition in data set [3] is 1%. Also, the inhibition at 1 µM in data set [4] was 40%.

Consider `O=S(=O)(NCCCCN1CCN(c2nsc3ccccc23)CC1)c1cc2ccccc2s1`, for which the inhibitory constant (Ki) came to 9.9 nM in data set [1], 6 nM in data set [2], 33 nM in data set [5] and 15 nM on D(2) dopamine receptor. For the same compound, the inhibition in data set [3] was 0%. In addition, the inhibition at 1 µM in data set [4] came out at 11%.

In the case of `O=S(=O)(NCCCN1CCC(c2noc3cc(F)ccc23)CC1)c1cc2ccccc2s1`, the Ki in data set [1] came out at 4.1 nM; in data set [2], 0.9 nM; in data set [5], 40 nM; on D(2) dopamine receptor, 11 nM. In addition, the inhibition in data set [3] stood at 13%. Also, the inhibition at 1 µM in data set [4] was 34%.

On to `O=S(=O)(NCCCN1CCN(c2noc3ccccc23)CC1)c1cccs1`, for which the Ki in data set [1] was 94 nM; in data set [2], 970 nM; in data set [5] it was more than 10000 nM. In addition, the inhibition in data set [3] was 4%. Further, in data set [4], the inhibition at 1 µM was determined as 18%.

With `O=S(=O)(NCCCCN1CCN(c2nsc3ccccc23)CC1)c1cnc2ccccn12`, the Ki in data set [1] was determined as 4.1 nM; in data set [2], 8.1 nM; in data set [5] it was 140 nM; on D(2) dopamine receptor, 46 nM. In addition, the inhibition in data set [3] turned out to be 6%. In addition, in data set [4], the inhibition at 1 µM was determined as 17%.

With `O=S(=O)(NCCCN1CCN(c2noc3ccccc23)CC1)c1ccc2cc(Cl)ccc2c1`, the Ki in data set [1] is 2500 nM; in data set [2], more than 10000 nM; in data set [5], 2300 nM; on D(2) dopamine receptor, more than 10000 nM. In data set [3], the inhibition turned out to be 3%. For the same compound, in data set [4], the inhibition at 1 µM turned out to be 14%.

As to `O=S(=O)(NCCCCN1CCN(c2noc3ccccc23)CC1)c1cccs1`, the inhibition constant (Ki) in data set [1] was determined as 67 nM; in data set [2] it was 2700 nM; in data set [5], 5200 nM; on D(2) dopamine receptor, 5.3 nM. Also, in data set [3], the inhibition came to 3%. In data set [4], the inhibition at 1 µM was found to be 39%.

Consider `O=S(=O)(NCCCN1CCC(c2noc3cc(F)ccc23)CC1)c1csc2ccccc12`, for which the inhibitory constant (Ki) was 0.9 nM in data set [1], 1.6 nM in data set [2], 13 nM in data set [5] and 36 nM at D(2) dopamine receptor. Also, the inhibition in data set [3] was -2%. Moreover, the inhibition at 1 µM in data set [4] is 25%.

For `Cc1cccc(S(=O)(=O)NCCCCN2CCN(c3noc4ccccc34)CC2)c1`, the inhibition constant (Ki) in data set [1] was 1.1 nM; in data set [2], 26 nM; in data set [5], 87 nM; at D(2) dopamine receptor, 44 nM. Further, the inhibition in data set [3] is -3%. Besides, the inhibition at 1 µM in data set [4] worked out at 27%.

Regarding `O=S(=O)(NCCCN1CCC(c2noc3cc(F)ccc23)CC1)c1ccc2ccccc2c1`, the Ki in data set [1] is 0.8 nM; in data set [2], 2.8 nM; in data set [5], 32 nM; on D(2) dopamine receptor it was 1 nM. In addition, the inhibition in data set [3] was -7%. Moreover, in data set [4], the inhibition at 1 µM came to 63%.

As to `O=S(=O)(NCCCN1CCN(c2noc3ccccc23)CC1)c1ccc(Cl)c(Cl)c1`, the inhibition constant Ki is 34 nM in data set [1], 290 nM in data set [2], 1100 nM in data set [5] and more than 10000 nM on D(2) dopamine receptor. Also, in data set [3], the inhibition is 0%. Further, the inhibition at 1 µM in data set [4] turned out to be 27%.

Turning to `O=S(=O)(NCCCCN1CCC(c2noc3cc(F)ccc23)CC1)c1ccc(F)c(Cl)c1`, the inhibitory constant (Ki) amounted to 4.4 nM in data set [1], 9 nM in data set [2], 48 nM in data set [5] and 26 nM at D(2) dopamine receptor. The inhibition in data set [3] was 18%. The inhibition at 1 µM in data set [4] came to 90%.

On to `O=S(=O)(NCCCN1CCN(c2noc3ccccc23)CC1)c1cc2ccccc2s1`, for which the inhibition constant (Ki) in data set [1] amounted to 150 nM; in data set [2], 410 nM; in data set [5], 35 nM; at D(2) dopamine receptor, 15 nM. For the same compound, the inhibition in data set [3] was 14%. Also, the inhibition at 1 µM in data set [4] was determined as 21%.

Consider `O=S(=O)(NCCCCN1CCN(c2nsc3ccccc23)CC1)c1ccc(Cl)c(Cl)c1`, for which the inhibition constant (Ki) in data set [1] was 6.9 nM; in data set [2], 12 nM; in data set [5], 71 nM; on D(2) dopamine receptor, 27 nM. Moreover, the inhibition in data set [3] turned out to be 7%. For the same compound, the inhibition at 1 µM in data set [4] is 45%.

As to `O=S(=O)(NCCCCN1CCN(c2nsc3ccccc23)CC1)c1ccc(F)c(Cl)c1`, the inhibition constant Ki worked out at 5.3 nM in data set [1], 15 nM in data set [2], 53 nM in data set [5] and 39 nM at D(2) dopamine receptor. For the same compound, the inhibition in data set [3] is -10%. Further, the inhibition at 1 µM in data set [4] stood at 29%.

Take `O=S(=O)(NCCCN1CCN(c2nsc3ccccc23)CC1)c1ccc2ccccc2c1`: the Ki in data set [1] was found to be 1.5 nM; in data set [2], 10 nM; in data set [5], 40 nM; on D(2) dopamine receptor it was 2.2 nM. Besides, the inhibition in data set [3] was 0%. For the same compound, the inhibition at 1 µM in data set [4] came to 13%.

`Cc1cccc(S(=O)(=O)NCCCCN2CCN(c3nsc4ccccc34)CC2)c1`: the Ki in data set [1] was 1.6 nM; in data set [2] it was 0.4 nM; in data set [5], 100 nM; at D(2) dopamine receptor it was 8.7 nM. Moreover, the inhibition in data set [3] is -4%. Besides, in data set [4], the inhibition at 1 µM amounted to 17%.

In the case of `Cc1c(S(=O)(=O)NCCCN2CCN(c3nsc4ccccc34)CC2)sc2ccc(F)cc12`, the Ki in data set [1] is 25 nM; in data set [2], 14 nM; in data set [5] it was 120 nM; at D(2) dopamine receptor it was 8.3 nM. Further, the inhibition in data set [3] is -8%. The inhibition at 1 µM in data set [4] was found to be 3%.

Turning to `O=S(=O)(NCCCCN1CCC(c2noc3cc(F)ccc23)CC1)c1csc2ccccc12`, the Ki stood at 4.3 nM in data set [1], 5.7 nM in data set [2], 13 nM in data set [5] and 22 nM on D(2) dopamine receptor. Besides, the inhibition in data set [3] was 5%. Moreover, the inhibition at 1 µM in data set [4] worked out at 46%.

For the compound `O=S(=O)(NCCCCN1CCC(c2noc3cc(F)ccc23)CC1)c1cccs1`, the inhibition constant Ki in data set [1] is 6.3 nM; in data set [2], 9.5 nM; in data set [5] it was 130 nM; at D(2) dopamine receptor, more than 1000 nM. Further, the inhibition in data set [3] was found to be 24%. Further, the inhibition at 1 µM in data set [4] came out at 53%.

As for `Cc1c(S(=O)(=O)NCCCCN2CCN(c3nsc4ccccc34)CC2)sc2ccc(F)cc12`, the Ki worked out at 4.6 nM in data set [1], 6.5 nM in data set [2], 54 nM in data set [5] and 44 nM at D(2) dopamine receptor. Moreover, the inhibition in data set [3] is 10%. The inhibition at 1 µM in data set [4] turned out to be 5%.

As for `Cc1c(S(=O)(=O)NCCCN2CCC(c3noc4cc(F)ccc34)CC2)sc2ccc(F)cc12`, the Ki was 10 nM in data set [1], 2.3 nM in data set [2], 25 nM in data set [5] and 8 nM on D(2) dopamine receptor. Besides, in data set [3], the inhibition amounted to 2%. For the same compound, the inhibition at 1 µM in data set [4] is 43%.

Turning to `O=S(=O)(NCCCCN1CCN(c2noc3ccccc23)CC1)c1ccc(OC(F)(F)F)cc1`, the Ki stood at 270 nM in data set [1], 210 nM in data set [2], 4800 nM in data set [5] and 400 nM at D(2) dopamine receptor. Besides, in data set [4], the inhibition at 1 µM was 24%.

Consider `O=S(=O)(NCCCCN1CCN(c2noc3ccccc23)CC1)c1ccc2cc(Cl)ccc2c1`, for which the Ki in data set [1] was found to be 6.7 nM; in data set [2], 7.7 nM; in data set [5] it was 18 nM; on D(2) dopamine receptor, 51 nM. For the same compound, the inhibition at 1 µM in data set [4] was found to be 9%.

Take `O=S(=O)(NCCCN1CCC(c2noc3cc(F)ccc23)CC1)c1ccc(OC(F)(F)F)cc1`: the Ki worked out at 8.8 nM in data set [1], 3.8 nM in data set [2], 35 nM in data set [5] and 33 nM at D(2) dopamine receptor. Besides, in data set [4], the inhibition at 1 µM was 87%.

With `O=S(=O)(NCCCN1CCN(c2nsc3ccccc23)CC1)c1cc2ccc(Cl)cc2s1`, the values for the inhibitory constant (Ki) in data set [1], in data set [2] and in data set [5] were 54 nM, 9.5 nM and 110 nM, respectively. In addition, the inhibition in data set [3] was -6%. The inhibition at 1 µM in data set [4] came to 0%.

`Cc1cccc(S(=O)(=O)NCCCN2CCN(c3nsc4ccccc34)CC2)c1`: the inhibitory constant (Ki) came to 1.7 nM in data set [1], 1.3 nM in data set [2], 22 nM in data set [5] and 13 nM on D(2) dopamine receptor. Also, in data set [4], the inhibition at 1 µM came out at 14%.
